Laboratory results reported in ChEMBL document CHEMBL1201861, “Genomics of Drug Sensitity in Cancer screening data, Wellcome Trust Sanger Institute”.

Tests used:
Assay in all cases: cells
TE-8 = format: functional, cell-based, Homo sapiens; conditions: Homo sapiens, TE-8;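 further: growth inhibition of TE-8 cells, measured with a cell viability readout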
Description: SANGER: Inhibition of human TE-8 cell growth in a cell viability assay.

RCC10RGB = format: functional, cell-based, Homo sapiens; conditions: Homo sapiens, RCC10RGB;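 further: growth inhibition of human RCC10RGB cells, read out by a cell viability assay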
Description: SANGER: Inhibition of human RCC10RGB cell growth in a cell viability assay.

HT-144 = format: functional, cell-based, Homo sapiens; conditions: Homo sapiens, HT-144
Description: SANGER: Inhibition of human HT-144 cell growth in a cell viability assay.

JVM-2 = format: functional, cell-based, Homo sapiens; conditions: Homo sapiens, JVM-2;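 further: growth inhibition of JVM-2 cells determined by a cell viability assay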
Description: SANGER: Inhibition of human JVM-2 cell growth in a cell viability assay.

DOHH-2 = format: functional, cell-based, Homo sapiens; conditions: Homo sapiens, DOHH-2;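 further: growth inhibition of human DOHH-2 cells, read out with a cell viability assay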
Description: SANGER: Inhibition of human DOHH-2 cell growth in a cell viability assay.

EKVX = format: functional, cell-based, Homo sapiens; conditions: Homo sapiens, EKVX;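 further: growth inhibition of human EKVX cells, read out with a cell viability assay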
Description: SANGER: Inhibition of human EKVX cell growth in a cell viability assay.

LOX IMVI = format: functional, cell-based, Homo sapiens; conditions: Homo sapiens, LOX IMVI
Description: SANGER: Inhibition of human LOXIMVI cell growth in a cell viability assay.

TE-10 = format: functional, cell-based, Homo sapiens; conditions: Homo sapiens, TE-10;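 further: growth inhibition of TE-10 cells, measured by a cell viability assay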
Description: SANGER: Inhibition of human TE-10 cell growth in a cell viability assay.

SNU-5 = format: functional, cell-based, Homo sapiens; conditions: Homo sapiens, SNU-5;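 further: cell viability readout used to measure growth inhibition in human NCI-SNU-5 cells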
Description: SANGER: Inhibition of human NCI-SNU-5 cell growth in a cell viability assay.

BV-173 = format: functional, cell-based, Homo sapiens; conditions: Homo sapiens, BV-173
Description: SANGER: Inhibition of human BV-173 cell growth in a cell viability assay.

OMC-1 = format: functional, cell-based, Homo sapiens; conditions: Homo sapiens, OMC-1;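 further: growth inhibition of the OMC-1 cell line, measured by a cell viability assay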
Description: SANGER: Inhibition of human OMC-1 cell growth in a cell viability assay.

KARPAS-45 = format: functional, cell-based, Homo sapiens; conditions: Homo sapiens, KARPAS-45;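 further: inhibition of cell line growth, read out through a viability assay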
Description: SANGER: Inhibition of human KARPAS-45 cell growth in a cell viability assay.

PSN1 = format: functional, cell-based, Homo sapiens; conditions: Homo sapiens, PSN1;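 further: suppression of growth of human PSN1 cells, read out by a cell viability assay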
Description: SANGER: Inhibition of human PSN1 cell growth in a cell viability assay.

NCI-H69 = format: functional, cell-based, Homo sapiens; conditions: Homo sapiens, NCI-H69;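 further: growth inhibition of the cell line, read out with a cell viability assay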
Description: SANGER: Inhibition of human NCI-H69 cell growth in a cell viability assay.

DJM-1 = format: functional, cell-based, Homo sapiens; conditions: Homo sapiens, DJM-1;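 further: growth inhibition of human DJM-1 cells, read out by a cell viability assay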
Description: SANGER: Inhibition of human DJM-1 cell growth in a cell viability assay.

HT = format: functional, cell-based, Homo sapiens; conditions: Homo sapiens, HT
Description: SANGER: Inhibition of human HT cell growth in a cell viability assay.

EW-1 = format: functional, cell-based, Homo sapiens; conditions: Homo sapiens, EW-1
Description: SANGER: Inhibition of human EW-1 cell growth in a cell viability assay.

VA-ES-BJ = format: functional, cell-based, Homo sapiens; conditions: Homo sapiens, VA-ES-BJ;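 further: growth inhibition of the VA-ES-BJ cell line, read out by a cell viability assay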
Description: SANGER: Inhibition of human VA-ES-BJ cell growth in a cell viability assay.

NCI-H82 = format: functional, cell-based, Homo sapiens; conditions: Homo sapiens, NCI-H82;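 further: growth inhibition of NCI-H82 cells, measured with a cell viability readout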
Description: SANGER: Inhibition of human NCI-H82 cell growth in a cell viability assay.

NKM-1 = format: functional, cell-based, Homo sapiens; conditions: Homo sapiens, NKM-1;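 further: growth inhibition of NKM-1 cells, read out with a cell viability assay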
Description: SANGER: Inhibition of human NKM-1 cell growth in a cell viability assay.

NCI-H2126 = format: functional, cell-based, Homo sapiens; conditions: Homo sapiens, NCI-H2126;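 further: growth inhibition of the cancer cell line, determined with a cell viability readout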
Description: SANGER: Inhibition of human NCI-H2126 cell growth in a cell viability assay.

ALL-PO = format: functional, cell-based, Homo sapiens; conditions: Homo sapiens, ALL-PO;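 further: growth inhibition of ALL-PO cells, read out by a cell viability assay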
Description: SANGER: Inhibition of human ALL-PO cell growth in a cell viability assay.

SK-MEL-1 = format: functional, cell-based, Homo sapiens; conditions: Homo sapiens, SK-MEL-1;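 further: growth inhibition of human SK-MEL-1 cells, read out by a cell viability assay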
Description: SANGER: Inhibition of human SK-MEL-1 cell growth in a cell viability assay.

NEC8 = format: functional, cell-based, Homo sapiens; conditions: Homo sapiens, NEC8;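 further: growth inhibition of human NEC8 cells, read out by a cell viability assay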
Description: SANGER: Inhibition of human NEC8 cell growth in a cell viability assay.

EW-11 = format: functional, cell-based, Homo sapiens; conditions: Homo sapiens, EW-11;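 further: growth inhibition of human EW-11 cells, measured with a cell viability assay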
Description: SANGER: Inhibition of human EW-11 cell growth in a cell viability assay.

RPMI-8226 = format: functional, cell-based, Homo sapiens; conditions: Homo sapiens, RPMI-8226
Description: SANGER: Inhibition of human RPMI-8226 cell growth in a cell viability assay.

HL-60 = format: functional, cell-based, Homo sapiens; conditions: Homo sapiens, HL-60;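 further: growth inhibition of human HL-60 cells, read out with a cell viability assay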
Description: SANGER: Inhibition of human HL-60 cell growth in a cell viability assay.

KINGS-1 = format: functional, cell-based, Homo sapiens; conditions: Homo sapiens, KINGS-1;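 further: cell viability assay measuring suppression of KINGS-1 cell growth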
Description: SANGER: Inhibition of human KINGS-1 cell growth in a cell viability assay.

D283 Med = format: functional, cell-based, Homo sapiens; conditions: Homo sapiens, D283 Med
Description: SANGER: Inhibition of human D-283MED cell growth in a cell viability assay.

SK-UT-1 = format: functional, cell-based, Homo sapiens; conditions: Homo sapiens, SK-UT-1;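 further: growth inhibition of SK-UT-1 cells, measured by a cell viability assay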
Description: SANGER: Inhibition of human SK-UT-1 cell growth in a cell viability assay.

HD-MY-Z = format: functional, cell-based, Homo sapiens; conditions: Homo sapiens, HD-MY-Z;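 further: growth inhibition of HD-MY-Z cells, read out with a cell viability assay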
Description: SANGER: Inhibition of human HD-MY-Z cell growth in a cell viability assay.

NCI-H1581 = format: functional, cell-based, Homo sapiens; conditions: Homo sapiens, NCI-H1581;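 further: cell growth inhibition read out by a viability assay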
Description: SANGER: Inhibition of human NCI-H1581 cell growth in a cell viability assay.

Calu-6 = format: functional, cell-based, Homo sapiens; conditions: Homo sapiens, Calu-6;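 further: growth of human Calu-6 cells, read out by a cell viability assay, IC50 marking inhibition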
Description: SANGER: Inhibition of human Calu-6 cell growth in a cell viability assay.

SW 954 = format: functional, cell-based, Homo sapiens; conditions: Homo sapiens, SW 954;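 further: growth inhibition of SW954 human cancer cells, read out as cell viability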
Description: SANGER: Inhibition of human SW954 cell growth in a cell viability assay.

Lu-65 = format: functional, cell-based, Homo sapiens; conditions: Homo sapiens, Lu-65;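 further: growth inhibition of Lu-65 cancer cells, read out by a cell viability assay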
Description: SANGER: Inhibition of human LU-65 cell growth in a cell viability assay.

A3-KAW = format: functional, cell-based, Homo sapiens; conditions: Homo sapiens, A3-KAW;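 further: growth inhibition of human A3-KAW cells, read out with a cell viability assay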
Description: SANGER: Inhibition of human A3-KAW cell growth in a cell viability assay.

NCI-H23 = format: functional, cell-based, Homo sapiens; conditions: Homo sapiens, NCI-H23;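 further: cell viability assay measuring growth inhibition of NCI-H23 cells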
Description: SANGER: Inhibition of human NCI-H23 cell growth in a cell viability assay.

SBC-1 = format: functional, cell-based, Homo sapiens; conditions: Homo sapiens, SBC-1;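 further: cell viability assay measuring growth inhibition of the SBC-1 cell line, IC50 being the concentration that halves growth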
Description: SANGER: Inhibition of human SBC-1 cell growth in a cell viability assay.

MEG-01 = format: functional, cell-based, Homo sapiens; conditions: Homo sapiens, MEG-01;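 further: growth inhibition of MEG-01 cells, read out by a cell viability assay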
Description: SANGER: Inhibition of human MEG-01 cell growth in a cell viability assay.

TGBC1TKB = format: functional, cell-based, Homo sapiens; conditions: Homo sapiens, TGBC1TKB;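 further: growth inhibition of TGBC1TKB cells, read out by a cell viability assay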
Description: SANGER: Inhibition of human TGBC1TKB cell growth in a cell viability assay.

NCI-H446 = format: functional, cell-based, Homo sapiens; conditions: Homo sapiens, NCI-H446;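 further: growth inhibition of NCI-H446 cells determined by a cell viability assay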
Description: SANGER: Inhibition of human NCI-H446 cell growth in a cell viability assay.

MZ2-MEL = format: functional, cell-based, Homo sapiens; conditions: Homo sapiens, MZ2-MEL;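 further: growth inhibition of MZ2-MEL cells read out with a cell viability assay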
Description: SANGER: Inhibition of human MZ2-MEL cell growth in a cell viability assay.

NCI-H1155 = format: functional, cell-based, Homo sapiens; conditions: Homo sapiens, NCI-H1155;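 further: cell growth inhibition measured by a viability assay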
Description: SANGER: Inhibition of human NCI-H1155 cell growth in a cell viability assay.

P30-OHK = format: functional, cell-based, Homo sapiens; conditions: Homo sapiens, P30-OHK;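 further: growth inhibition of the P30-OHK cell line, read out with a cell viability assay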
Description: SANGER: Inhibition of human P30-OHK cell growth in a cell viability assay.

A388 = format: functional, cell-based; conditions: Homo sapiens;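 further: growth inhibition of human A388 cells, read out with a cell viability assay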
Description: SANGER: Inhibition of human A388 cell growth in a cell viability assay.

NCI-H1092 = format: functional, cell-based, Homo sapiens; conditions: Homo sapiens, NCI-H1092;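 further: cell growth inhibition measured with a cell viability assay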
Description: SANGER: Inhibition of human NCI-H1092 cell growth in a cell viability assay.

CTB-1 = format: functional, cell-based, Homo sapiens; conditions: Homo sapiens, CTB-1
Description: SANGER: Inhibition of human CTB-1 cell growth in a cell viability assay.

KNS-42 = format: functional, cell-based; conditions: Homo sapiens;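 further: growth inhibition of KNS-42 cells, read out with a cell viability assay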
Description: SANGER: Inhibition of human KNS-42 cell growth in a cell viability assay.

SK-N-DZ = format: functional, cell-based, Homo sapiens; conditions: Homo sapiens, SK-N-DZ; read-out: IC50;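 further: growth inhibition of the cancer cell line, read out through a viability assay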
Description: SANGER: Inhibition of human SK-N-DZ cell growth in a cell viability assay.

In the case of `Cc1ccc(-n2nc(C(C)(C)C)cc2NC(=O)Nc2ccc(OCCN3CCOCC3)c3ccccc23)cc1` [DORAMAPIMOD], the IC50 (TE-8) is reported as greater than 10000 nM, the IC50 (RCC10RGB) is reported as greater than 10000 nM and the IC50 (HT-144) is reported as greater than 10000 nM. For the same molecule, the IC50 (JVM-2) was greater than 10000 nM, the IC50 (DOHH-2) was greater than 10000 nM and the IC50 (EKVX) was greater than 10000 nM. It also gave an IC50 (LOX IMVI) greater than 10000 nM, an IC50 (TE-10) greater than 10000 nM and an IC50 (SNU-5) greater than 10000 nM. The IC50 (BV-173) was greater than 10000 nM, the IC50 (OMC-1) was greater than 10000 nM and the IC50 (KARPAS-45) was greater than 10000 nM. It also gave an IC50 (PSN1) greater than 10000 nM, an IC50 (NCI-H69) greater than 10000 nM and an IC50 (DJM-1) greater than 10000 nM. The IC50 (HT) was greater than 10000 nM, the IC50 (EW-1) was greater than 10000 nM and the IC50 (VA-ES-BJ) was greater than 10000 nM. It also gave an IC50 (NCI-H82) greater than 10000 nM, an IC50 (NKM-1) greater than 10000 nM and an IC50 (NCI-H2126) greater than 10000 nM. The IC50 (ALL-PO) was greater than 10000 nM, the IC50 (SK-MEL-1) was greater than 10000 nM and the IC50 (NEC8) was greater than 10000 nM. The IC50 (EW-11) was greater than 10000 nM, the IC50 (RPMI-8226) was greater than 10000 nM and the IC50 (HL-60) was greater than 10000 nM. The IC50 (KINGS-1) was greater than 10000 nM, the IC50 (D283 Med) was greater than 10000 nM and the IC50 (SK-UT-1) was greater than 10000 nM. The IC50 (HD-MY-Z) was greater than 10000 nM, the IC50 (NCI-H1581) was greater than 10000 nM and the IC50 (Calu-6) was greater than 10000 nM. The IC50 (SW 954) was greater than 10000 nM, the IC50 (Lu-65) was greater than 10000 nM and the IC50 (A3-KAW) was greater than 10000 nM. It also gave an IC50 (NCI-H23) greater than 10000 nM, an IC50 (SBC-1) greater than 10000 nM and an IC50 (MEG-01) greater than 10000 nM. It also gave an IC50 (TGBC1TKB) greater than 10000 nM, an IC50 (NCI-H446) greater than 10000 nM and an IC50 (MZ2-MEL) greater than 10000 nM. The IC50 (NCI-H1155) was greater than 10000 nM, the IC50 (P30-OHK) was greater than 10000 nM and the IC50 (A388) was greater than 10000 nM. For the same molecule, the IC50 (NCI-H1092) was greater than 10000 nM, the IC50 (CTB-1) was greater than 10000 nM and the IC50 (KNS-42) was greater than 10000 nM. It also gave an IC50 (SK-N-DZ) greater than 10000 nM.

For `CN(NC(=O)CC(=O)NN(C)C(=S)c1ccccc1)C(=S)c1ccccc1` [ELESCLOMOL], the IC50 (TE-8) was 5.41 nM, the IC50 (RCC10RGB) was greater than 200 nM and the IC50 (HT-144) was 13 nM. For the same molecule, the IC50 (JVM-2) was greater than 200 nM, the IC50 (DOHH-2) was greater than 200 nM and the IC50 (EKVX) was 39.5 nM. It also gave an IC50 (LOX IMVI) of 171 nM, an IC50 (TE-10) greater than 200 nM and an IC50 (SNU-5) greater than 200 nM. The IC50 (BV-173) was 5.39 nM, the IC50 (OMC-1) was 77.1 nM and the IC50 (KARPAS-45) was greater than 200 nM. It also gave an IC50 (PSN1) of 3.84 nM, an IC50 (NCI-H69) greater than 200 nM and an IC50 (DJM-1) of 54.3 nM. It also gave an IC50 (HT) greater than 200 nM, an IC50 (EW-1) of 5.24 nM and an IC50 (VA-ES-BJ) of 7.64 nM. For the same molecule, the IC50 (NCI-H82) was greater than 200 nM, the IC50 (NKM-1) was greater than 200 nM and the IC50 (NCI-H2126) was 16.3 nM. The IC50 (ALL-PO) was greater than 200 nM, the IC50 (SK-MEL-1) was greater than 200 nM and the IC50 (NEC8) was 11.5 nM. The IC50 (EW-11) was 4.9 nM, the IC50 (RPMI-8226) was 46 nM and the IC50 (HL-60) was 66.8 nM. It also gave an IC50 (KINGS-1) of 177 nM, an IC50 (D283 Med) of 40.9 nM and an IC50 (SK-UT-1) of 14.1 nM. For the same molecule, the IC50 (HD-MY-Z) was 5.91 nM, the IC50 (NCI-H1581) was 24.6 nM and the IC50 (Calu-6) was greater than 200 nM. For the same molecule, the IC50 (SW 954) was 14.2 nM, the IC50 (Lu-65) was greater than 200 nM and the IC50 (A3-KAW) was 86.5 nM. The IC50 (NCI-H23) was 12.2 nM, the IC50 (SBC-1) was 35.1 nM and the IC50 (MEG-01) was 105 nM. For the same molecule, the IC50 (TGBC1TKB) was 33.3 nM, the IC50 (NCI-H446) was 90.1 nM and the IC50 (MZ2-MEL) was greater than 200 nM. It also gave an IC50 (NCI-H1155) of 46.2 nM, an IC50 (P30-OHK) greater than 200 nM and an IC50 (A388) greater than 200 nM. The IC50 (NCI-H1092) was 90.1 nM, the IC50 (CTB-1) was 8.64 nM and the IC50 (KNS-42) was greater than 200 nM. For the same molecule, the IC50 (SK-N-DZ) was 189 nM.
